Columns and labels:
[1] = system: antibodies in sera from SARS patients (sera 1a, 1b, 2, 6, 37, 62, London, SARS-yellow, SARS-green); type: binding, human; design: Binding of serum 6 to linear peptides of protein X1 of SARS-CoV Urbani / Binding of serum 37 to linear peptides of protein X1 of SARS-CoV Urbani / Binding of serum 6 to looped/cyclic peptide (PEPSCAN-ELISA) / Binding of serum 37 to looped/cyclic peptide (PEPSCAN-ELISA) / Binding of serum 37 to looped/cyclic peptides of protein X1 of SARS-CoV Urbani / Binding of serum 6 to linear peptides of protein X2 / Binding of serum 37 to linear peptides of protein X2 / Binding of serum 37 to looped/cyclic peptides of protein X2 of SARS-CoV Urbani / Binding of serum 6 to linear peptides of protein M of SARS-CoV Urbani / Binding of serum 37 to linear peptides of protein M of SARS-CoV Urbani / Binding of serum 6 to looped/cyclic peptides of protein M of SARS-CoV Urbani / Binding of serum 37 to looped/cyclic peptides of protein M of SARS-CoV Urbani / Binding of serum 6 to linear peptides of protein X3 of SARS-CoV Urbani / Binding of serum 37 to linear peptides of protein X3 of SARS-CoV Urbani / Binding of serum 37 to looped/cyclic peptides of protein X3 of SARS-CoV Urbani / Binding of serum 6 to linear peptides of protein X4 of SARS-CoV Urbani / Binding of serum 37 to linear peptides of protein X4 of SARS-CoV Urbani / Binding of serum 37 to looped/cyclic peptides of protein X4 of SARS-CoV Urbani / Binding of serum 6 to linear peptides of protein X5 of SARS-CoV Urbani / Binding of serum 37 to linear peptides of protein X5 of SARS-CoV Urbani / Binding of serum 37 to looped/cyclic peptides of protein X5 of SARS-CoV Urbani / Binding of serum 6 to linear peptides of protein N of SARS-CoV Urbani / Binding of serum 37 to linear peptides of protein N of SARS-CoV Urbani / Binding of serum 6 to linear peptide (PEPSCAN-ELISA) / Binding of serum 1a to looped/cyclic peptides of protein N of SARS-CoV Urbani / Binding of serum 1b to looped/cyclic peptides of protein N of SARS-CoV Urbani / Binding of serum 2 to looped/cyclic peptides of protein N of SARS-CoV Urbani / Binding of serum 6 to looped/cyclic peptides of protein N of SARS-CoV Urbani / Binding of serum 37 to looped/cyclic peptides of protein N of SARS-CoV Urbani / Binding of serum 62 to looped/cyclic peptides of protein N of SARS-CoV Urbani / Binding of serum London to looped/cyclic peptides of protein N of SARS-CoV Urbani / Binding of serum SARS-green to looped/cyclic peptides of protein N of SARS-CoV Urbani: unit not given here
[2] = system: control sera (pooled serum of ten healthy LUMC hospital workers; commercial negative donor pooled serum from the Dutch bloodbank); type: binding, human; design: Binding of Control serum LUMC to linear peptides / Binding of Control serum Blood-bank to linear peptides / Binding of Control serum LUMC to looped peptides / Binding of Control Serum Blood-Bank to Looped peptides / Binding of Control serum LUMC to linear peptides of the protein M of SARS-CoV Urbani / Binding of Control serum Blood-bank to linear peptides of the protein M of SARS-CoV Urbani / Binding of Control serum LUMC to looped peptides of the protein M of SARS-CoV Urbani / Binding of Control Serum Blood-Bank to Looped peptides of the protein M of SARS-CoV Urbani: unit not given here
[3] = system: rabbit serum obtained by immunizing a rabbit with the SARS-CoV strain Frankfurt 1; type: binding; design: Binding of a rabbit serum to linear peptides / Binding of a rabbit serum to looped peptides / Rabbit serum linear peptides / Rabbit serum looped peptides / Binding of a rabbit serum to linear peptides of protein N of SARS-CoV Urbani (Rabbit serum linear peptides) / Binding of a rabbit serum to looped/cyclic peptides of protein N of SARS-CoV Urbani (Rabbit serum looped peptides): unit not given here

TRGNTYSTAWLCALG was tested, and the “Binding of serum 1a to linear peptides of protein X5 of SARS-CoV Urbani” value [1] was 0.8, the “Binding of serum 1a to looped/cyclic peptides of protein X5 of SARS-CoV Urbani” value [1] was 0.4 and the “Binding of serum 1b to linear peptides of protein X5 of SARS-CoV Urbani” value [1] was 0.6. For the same sequence, the “Binding of serum 1b to looped/cyclic peptides of protein X5 of SARS-CoV Urbani” value [1] was 0.1, the “Binding of serum 2 to linear peptides of protein X5 of SARS-CoV Urbani” value [1] was 0.6 and the “Binding of serum 2 to looped/cyclic peptides of protein X5 of SARS-CoV Urbani” value [1] was 0.4. The “Binding of serum 6 to linear peptides of protein X5 of SARS-CoV Urbani” value [1] was 0.6, the “Binding of serum 6 to looped/cyclic peptides of protein X5 of SARS-CoV Urbani” value [1] was 0.3 and the “Binding of serum 37 to linear peptides of protein X5 of SARS-CoV Urbani” value [1] was 0.8. For the same sequence, the “Binding of serum 37 to looped/cyclic peptides of protein X5 of SARS-CoV Urbani” value [1] was 0.4, the “Binding of serum 62 to linear peptides of protein X5 of SARS-CoV Urbani” value [1] was 0.8 and the “Binding of serum 62 to looped/cyclic peptides of protein X5 of SARS-CoV Urbani” value [1] was 0.6. For the same sequence, the “Binding of serum London to linear peptides of protein X5 of SARS-CoV Urbani” value [1] was 0.7, the “Binding of serum London to looped/cyclic peptides of protein X5 of SARS-CoV Urbani” value [1] was 0.2 and the “Binding of serum SARS-green to linear peptides of protein X5 of SARS-CoV Urbani” value [1] was 0.6. The “Binding of serum SARS-green to looped/cyclic peptides of protein X5 of SARS-CoV Urbani” value [1] was 0.3, the “Binding of serum SARS-yellow to linear peptides of protein X5 of SARS-CoV Urbani” value [1] was 0.5 and the “Binding of serum SARS-yellow to looped/cyclic peptides of protein X5 of SARS-CoV Urbani” value [1] was 0.3. The “Binding of Control Serum Blood-Bank to Looped peptides” value [2] was 0.4, the “Binding of Control serum Blood-bank to linear peptides” value [2] was 0.7 and the “Binding of Control serum LUMC to linear peptides” value [2] was 0.6. For the same sequence, the “Binding of Control serum LUMC to looped peptides” value [2] was 0.6, the “Rabbit serum linear peptides” value [3] was 0.7 and the “Rabbit serum looped peptides” value [3] was 0.0.
With CTSTHFAFACADGTR the “Binding of serum 1a to linear peptides of protein X4 of SARS-CoV Urbani” value [1] was 0.7, the “Binding of serum 1a to looped/cyclic peptides of protein X4 of SARS-CoV Urbani” value [1] was 0.7 and the “Binding of serum 1b to linear peptides of protein X4 of SARS-CoV Urbani” value [1] was 0.7. The “Binding of serum 1b to looped/cyclic peptides of protein X4 of SARS-CoV Urbani” value [1] was 0.4, the “Binding of serum 2 to linear peptides of protein X4 of SARS-CoV Urbani” value [1] was 0.5 and the “Binding of serum 2 to looped/cyclic peptides of protein X4 of SARS-CoV Urbani” value [1] was 0.6. The “Binding of serum 6 to linear peptides of protein X4 of SARS-CoV Urbani” value [1] was 0.6, the “Binding of serum 6 to looped/cyclic peptides of protein X4 of SARS-CoV Urbani” value [1] was 0.6 and the “Binding of serum 37 to linear peptides of protein X4 of SARS-CoV Urbani” value [1] was 0.7. The “Binding of serum 37 to looped/cyclic peptides of protein X4 of SARS-CoV Urbani” value [1] was 0.7, the “Binding of serum 62 to linear peptides of protein X4 of SARS-CoV Urbani” value [1] was 0.8 and the “Binding of serum 62 to looped/cyclic peptides of protein X4 of SARS-CoV Urbani” value [1] was 0.7. For the same sequence, the “Binding of serum London to linear peptides of protein X4 of SARS-CoV Urbani” value [1] was 0.7, the “Binding of serum London to looped/cyclic peptides of protein X4 of SARS-CoV Urbani” value [1] was 0.3 and the “Binding of serum SARS-green to linear peptides of protein X4 of SARS-CoV Urbani” value [1] was 0.6. The “Binding of serum SARS-green to looped/cyclic peptides of protein X4 of SARS-CoV Urbani” value [1] was 0.4, the “Binding of serum SARS-yellow to linear peptides of protein X4 of SARS-CoV Urbani” value [1] was 0.4 and the “Binding of serum SARS-yellow to looped/cyclic peptides of protein X4 of SARS-CoV Urbani” value [1] was 1.0. For the same sequence, the “Binding of Control Serum Blood-Bank to Looped peptides” value [2] was 0.8, the “Binding of Control serum Blood-bank to linear peptides” value [2] was 0.7 and the “Binding of Control serum LUMC to linear peptides” value [2] was 0.8. The “Binding of Control serum LUMC to looped peptides” value [2] was 0.7, the “Rabbit serum linear peptides” value [3] was 0.4 and the “Rabbit serum looped peptides” value [3] was 0.6.
DPPNVQIHTIDGSSG was tested, and the “Binding of serum 1a to linear peptides of protein X1 of SARS-CoV Urbani” value [1] was 0.5, the “Binding of serum 1a to looped/cyclic peptides of protein X1 of SARS-CoV Urbani” value [1] was 0.4 and the “Binding of serum 1b to linear peptides of protein X1 of SARS-CoV Urbani” value [1] was 0.4. The “Binding of serum 1b to looped/cyclic peptides of protein X1 of SARS-CoV Urbani” value [1] was 0.2, the “Binding of serum 2 to linear peptides of protein X1 of SARS-CoV Urbani” value [1] was 0.3 and the “Binding of serum 2 to looped/cyclic peptides of protein X1 of SARS-CoV Urbani” value [1] was 0.2. The “Binding of serum 6 to linear peptides of protein X1 of SARS-CoV Urbani” value [1] was 0.3, the “Binding of serum 6 to looped/cyclic peptides of protein X1 of SARS-CoV Urbani” value [1] was 0.2 and the “Binding of serum 37 to linear peptides of protein X1 of SARS-CoV Urbani” value [1] was 0.5. The “Binding of serum 37 to looped/cyclic peptides of protein X1 of SARS-CoV Urbani” value [1] was 0.3, the “Binding of serum 62 to linear peptides of protein X1 of SARS-CoV Urbani” value [1] was 0.4 and the “Binding of serum 62 to looped/cyclic peptides of protein X1 of SARS-CoV Urbani” value [1] was 0.3. The “Binding of serum London to linear peptides of protein X1 of SARS-CoV Urbani” value [1] was 0.2, the “Binding of serum London to looped/cyclic peptides of protein X1 of SARS-CoV Urbani” value [1] was 0.2 and the “Binding of serum SARS-green to linear peptides of protein X1 of SARS-CoV Urbani” value [1] was 0.2. For the same sequence, the “Binding of serum SARS-green to looped/cyclic peptides of protein X1 of SARS-CoV Urbani” value [1] was 0.2, the “Binding of serum SARS-yellow to linear peptides of protein X1 of SARS-CoV Urbani” value [1] was 0.2 and the “Binding of serum SARS-yellow to looped/cyclic peptides of protein X1 of SARS-CoV Urbani” value [1] was 0.2. The “Binding of Control Serum Blood-Bank to Looped peptides” value [2] was 0.4, the “Binding of Control serum Blood-bank to linear peptides” value [2] was 0.3 and the “Binding of Control serum LUMC to linear peptides” value [2] was 0.3. For the same sequence, the “Binding of Control serum LUMC to looped peptides” value [2] was 0.5, the “Binding of a rabbit serum to linear peptides” value [3] was 0.1 and the “Binding of a rabbit serum to looped peptides” value [3] was 0.4.

From patent US20070128217A1 (priority 2003, published 2007)
